Tested on: ER-HoxA9 myeloid cells, GFP+/MAC1+ differentiation, flow cytometry
Assay: myeloid differentiation promoters in ER-HoxA9 cells, dose response, cell-based, flow cytometry, Powder Set01 (AID 652156)

Row | EC50 | SMILES
1 | 930 nM | Cc1ccc(Nc2nc(=O)c3cccnc3s2)c(Br)c1
2 | 1330 nM | O=C(O)c1cccnc1Nc1ccc(Cl)cc1
3 | 2090 nM | O=C(CCNC(=O)c1ccc(Cl)cc1)NC1CCCc2ccccc21 (stereo not drawn)
